In article PMC10674535, “Development and Evaluation of a Self-Nanoemulsifying Drug Delivery System for Sinapic Acid with Improved Antiviral Efficacy against SARS-CoV-2” (Pharmaceutics, 2023):
≈ marks a conversion by molar mass, not a printed value. Read-outs that look alike come from different tables or passages of the source.

What was measured:
[1] = target: T1, 3CL Protease, tagged (SARS-CoV-2) (Mpro) (Severe acute respiratory syndrome coronavirus 2, UniProt P0DTD1); test: Mpro enzyme assay (3CL Protease FRET assay kit); type: biochemical; details: excitation 360 nm, emission 460 nm, read-out: IC50, in vitro Mpro inhibitory activity
T1 construct: 3CL Protease, tagged (SARS-CoV-2) Assay Kit; unspecified tag (printed only as 'tagged'); purchased BPS Bioscience, Inc. 79955-1
Description: The in vitro FRET assay was monitored at an emission wavelength of 460 nm with an excitation at 360 nm using a Flx800 fluorescence spectrophotometer (BioTek Instruments, Winooski, VT, USA).

[2] = Equilibrium (saturated) solubility of SA in oils, surfactants and cosurfactants (isothermal method); type: physicochemical; details: room temperature; for solubility at 3 days: read-out: Saturated solubility of sinapic acid; for Saturated solubility of sinapic acid: 3 days, listed as SA
Description: The equilibrium solubility of SA was studied in various oils, surfactants, and cosurfactants. Oils of different saturation degrees (medium- or long-chain triglycerides) were utilized to create an SNE to test their solubilization and nano-emulsification ability. The oil with the highest ability to solubilize SA was chosen due to its significant impact on drug solubilization ability and absorption. The tested oils included Labrafil, Capryol-90, Labrafac, olive oil, anise oil, almond oil, soybean oil, and corn oil. The screened surfactants were hydrophilic non-ionic surfactants (Cremophor El, Tween 20, and Tween 80); they have high HLB values and low oral toxicity. Labrasol, Transcutol, PEG 400, and propylene glycol were the screened cosurfactants. An isothermal method previously reported in the literature was utilized for the solubility determination. In brief, 300 mg of SA was added to 1 mL of each component in screw-capped glass vials and mixed using a vortex mixer. The mixtures were then transferred to a thermodynamic water bath shaker (JULABO™, Julabo Labortechnik GMBH, Seelbach, Germany) for continuous shaking at a speed of 100 rpm at room temperature for three days, followed by centrifugation at 4000 rpm for 25 min. SA concentration was measured spectrophotometrically at 322 nm after the supernatant was diluted with methanol using a magnetic stirrer at 500 rpm for 2 min at room temperature. The results of this study provide important insights into the solubility of SA in various oils, surfactants, and cosurfactants, which is crucial for the formulation of SA in a self-nanoemulsifying dosage form.

[3] = tested on: SARS-CoV-2 (hCoV-19/Egypt/NRC-3/2020 isolate); test: microbe, parasite or virus in culture; type: cell-based; details: Severe acute respiratory syndrome coronavirus 2, Vero C1008, 48 h, read-out: IC50, in vitro antiviral activity against SARS-CoV-2
in vitro = details: African green monkey

## COc1cc(/C=C/C(=O)O)cc(OC)c1O [Sinapic acid]
[1]
  IC50: 6.74 ± 0.95 µM
[2]; Capryol 90 (oil), oil or lipid, thermodynamic from solid, in Capryol 90 (oil)
  solubility at 3 days: 22.5 mg/mL (≈ 100 mM)
[2]; Cremophore El (surfactant), thermodynamic from solid, in Cremophore El (surfactant)
  solubility at 3 days: 138 mg/mL (≈ 617 mM)
[2]; Labrafac (oil), oil or lipid, thermodynamic from solid, in Labrafac (oil)
  solubility at 3 days: 14.3 mg/mL (≈ 63.9 mM)
[2]; Labrafil (oil), in Labrafil (oil)
  solubility at 3 days: 30 mg/mL (≈ 134 mM)
[2]; Labrafil (oil), oil or lipid, thermodynamic from solid, in Labrafil (oil)
  solubility at 3 days: 30 mg/mL (≈ 134 mM)
[2]; Labrasol, thermodynamic from solid, in Labrasol
  solubility at 3 days: 60.4 mg/mL (≈ 269 mM)
[2]; PEG 400 (co-surfactant), organic solvent or mixture, thermodynamic from solid, in PEG 400 (co-surfactant)
  solubility at 3 days: 102 mg/mL (≈ 455 mM)
[2]; Transcutol (co-surfactant), organic solvent or mixture, thermodynamic from solid, in Transcutol (co-surfactant)
  solubility at 3 days: 193 mg/mL (≈ 860 mM)
[2]; Tween 20 (surfactant), thermodynamic from solid, in Tween 20 (surfactant)
  solubility at 3 days: 123 mg/mL (≈ 550 mM)
[2]; Tween 80 (surfactant), thermodynamic from solid, in Tween 80 (surfactant)
  solubility at 3 days: 78.8 mg/mL (≈ 352 mM)
[2]; almond oil, oil or lipid, thermodynamic from solid, in almond oil
  solubility at 3 days: 1.71 mg/mL (≈ 7.63 mM)
[2]; anise oil, oil or lipid, thermodynamic from solid, in anise oil
  solubility at 3 days: 5.02 mg/mL (≈ 22.4 mM)
[2]; corn oil, oil or lipid, thermodynamic from solid, in corn oil
  solubility at 3 days: 0.81 mg/mL (≈ 3.61 mM)
[2]; in Cremophore El (surfactant)
  Saturated solubility of sinapic acid: 138 mg/mL
[2]; in Labrasol
  Saturated solubility of sinapic acid: 60 mg/mL
[2]; in PEG 400 (co-surfactant)
  Saturated solubility of sinapic acid: 102 mg/mL
[2]; in Transcutol (co-surfactant)
  Saturated solubility of sinapic acid: 192 mg/mL
[2]; in Tween 80 (surfactant)
  Saturated solubility of sinapic acid: 78 mg/mL
[2]; in propylene glycol (co-surfactant)
  Saturated solubility of sinapic acid: 58 mg/mL
[2]; olive oil, oil or lipid, thermodynamic from solid, in olive oil
  solubility at 3 days: 7.11 mg/mL (≈ 31.7 mM)
[2]; propylene glycol (co-surfactant), organic solvent or mixture, thermodynamic from solid, in propylene glycol (co-surfactant)
  solubility at 3 days: 58.4 mg/mL (≈ 260 mM)
[2]; soybean oil, oil or lipid, thermodynamic from solid, in soybean oil
  solubility at 3 days: 1.25 mg/mL (≈ 5.58 mM)
[3]
  IC50: 2.53 ± 0.065 µg/mL (≈ 0.0113 mM)
In vitro
  CC50: 196 ± 15.1 µg/mL (≈ 0.875 mM)

## CCC(CC)COC(=O)[C@H](C)N[P@](=O)(OC[C@H]1O[C@@](C#N)(c2ccc3c(N)ncnn23)[C@H](O)[C@@H]1O)Oc1ccccc1 [remdesivir, reference compound]
[3]; Vero E6 cells, MOI 0.5, viral RNA by real-time PCR after 2 days, n = 3
  IC50: 0.036 ± 0.002 µg/mL (≈ 5.97e-05 mM)
